Assay results: patent publication US8642516B2, “Chemically-defined arrays for screening cell-substrate interactions” (Wisconsin Alumni Research Foundation, priority 2012, dated 2014)

Key:
HUVEC [1] = experiment: HUVEC attachment to SAM spots presenting mutant ligand (Example 8); type: cell-based, human
Protocol: Specifically, SAM array spots presenting mixed ligands were prepared as described above. SAM arrays presenting varied ligand densities of covalently immobilized VEGF receptor-binding peptide ([…], here referred to as “VR-BP”; SEQ ID NO:17) and varied ligand densities of the fibronectin-derived cell adhesion peptide (GRGDSP, SEQ ID NO:18) were used to probe for changes in HUVEC attachment, proliferation and tubulogenesis. Control over individual ligand density was achieved by mixing scrambled VR-BP and mutant GRGESP (SEQ ID NO:19) with functional VR-BP or GRGDSP (SEQ ID NO:18) peptides, respectively. Therefore, in a typical SAM array, SAMs were locally formed within spots using an alkanethiolate mixture of 94% HS—C11-EG3-OH and 6% HS—C11-EG6-COOH to create substrates with a total of 6% carboxylate groups for peptide conjugation. Next, to create a spot presenting 5% GRGDSP (SEQ ID NO:18) and 1% VR-BP, a 300 μM peptide solution with 250 μM GRGDSP (SEQ ID NO:18) and 50 μM VR-BP was used during peptide conjugation. […] As mentioned previously, ligand concentrations were measured using UV/Vis since all peptides either contained residues that absorbed strongly at 280 nm, or were engineered to contain tryptophan residues in the poly-glycine tail. […]

hMSC = hMSC surface coverage over time on SAM spots presenting GRGDSP with BR-BP and HPG-BP; type: cell-based, human; details: low GRGDSP density SAM spots, cultured 20 days
From the text: In this SAM array approach, each spot was designed to contain the same total molar density (mol/cm^2) of peptide from spot to spot. Therefore, control over individual peptide density was achieved by mixing scrambled BR-BP and HPG-BP and mutant GRGESP (SEQ ID NO:19) peptides with functional BR-BP, HPG-BP or GRGDSP (SEQ ID NO:18) peptides, respectively. Therefore, in a typical SAM array, SAMs were locally formed within spots using an alkanethiolate mixture of 95% HS—C11-EG3-OH and 5% HS—C11-EG6-COOH to create substrates with a total of 5% carboxylate groups for peptide conjugation. Here, “X %” refers to the mole percent of alkanethiolate present during SAM formation and subsequently the approximate amount of an alkanethiolate present on the surface after SAM formation. To regulate the density of active peptide present in each spot, mutant and scramble versions of peptides were included during peptide conjugation. […] As mentioned previously, peptide concentrations were easily measured using UV/Vis since all peptides either contained residues that absorbed strongly at 280 nm, or were engineered to contain tryptophan residues in the poly-glycine tail. […]

HUVEC [2] = experiment: HUVEC proliferation (Click-it EdU) in response to soluble morphogens on SAM arrays; type: cell-based, human; details: soluble, 10 ng/ml, 24 hours, m199 with 2% FBS, highest ligand density spots
Protocol: Specifically, SAM array spots presenting mixed ligands were prepared as described above. SAM arrays presenting varied ligand densities of covalently immobilized VEGF receptor-binding peptide ([sequence], here referred to as “VR-BP”; SEQ ID NO:17) and varied ligand densities of the fibronectin-derived cell adhesion peptide (GRGDSP, SEQ ID NO:18) were used to probe for changes in HUVEC attachment, proliferation and tubulogenesis. Control over individual ligand density was achieved by mixing scrambled VR-BP and mutant GRGESP (SEQ ID NO:19) with functional VR-BP or GRGDSP (SEQ ID NO:18) peptides, respectively. Therefore, in a typical SAM array, SAMs were locally formed within spots using an alkanethiolate mixture of 94% HS—C11-EG3-OH and 6% HS—C11-EG6-COOH to create substrates with a total of 6% carboxylate groups for peptide conjugation. Next, to create a spot presenting 5% GRGDSP (SEQ ID NO:18) and 1% VR-BP, a 300 μM peptide solution with 250 μM GRGDSP (SEQ ID NO:18) and 50 μM VR-BP was used during peptide conjugation. Likewise, to create a spot presenting 2.5% GRGDSP (SEQ ID NO:18) and 0.1% VR-BP, a 300 μM peptide solution with 125 μM GRGDSP (SEQ ID NO:18), 125 μM GRGESP (SEQ ID NO:19), 5 μM VR-BP and 45 μM scrambled peptide was used during peptide conjugation. In this manner, the amount of active ligand could be varied between spots while holding the total ligand content constant.
Passage 2 HUVECs were expanded at low cell density (less than 70% confluence) on tissue culture polystyrene to no more than 14 population doublings. During HUVEC expansion, cells were cultured in medium 199 (m199, Mediatech, Manassas, Va.) containing 1% penicillin/streptomycin (Hyclone, Logan, Utah) and supplemented with Clonetics EGM-2 BullitKit (Lonza Walkersville, Inc., Walkersville, Md.) containing Hydrocortisone, hFGF-B, VEGF, R3-IGF-1, Ascorbic Acid, Heparin, FBS, hEGF, GA-1000 growth supplements. […]

HUVEC [3] = experiment: Endothelial tubulogenesis on SAM spots with matrigel overlay; type: cell-based, human
Protocol: Specifically, SAM arrays seeded overnight with 50,000 HUVECs/cm^2 were rinsed with warm media and then flipped over onto cold matrigel (Growth factor reduced matrigel, BD Biosciences, Bedford, Mass.) in a rectangular multidish well containing varied concentrations of soluble recombinant VEGF. Matrigel was allowed to gel for 5 minutes, and then the array and matrigel layer were covered with warm m199 with 2% FBS. Arrays were then placed in a TIZ Tokai Hit incubated, humidified stage at 37° C. and 5% CO2 and each array spot was imaged using phase contrast microscopy every 15 minutes for 48 hours. Image analysis was performed using NIS Elements software. The total cell area and length of individual objects were measured in each array spot at 24 hours after seeding. To measure mean length of capillary-like structures, each image was contrasted and thresholded using a standard method to isolate elongated objects for automated length measurements. All objects with a length less than 20 μm were excluded from length measurements. To measure total area occupied by cells, the images were contrasted and thresholded to isolate all cell bodies from the background for automated area measurements. Objects with a length less than 10 μm were excluded from area measurements. Tubulogenesis in each spot was quantified by normalizing the mean length of objects to total cell area in each array spot. SAM array spots were imaged using a Nikon Eclipse Ti inverted microscope with a 10×PhL objective, equipped with Nikon's Perfect Focus System. 10× images were stitched using Nikon NIS Elements software to capture entire array spots and cell counting was performed using the cell counting application in NIS Elements. Statistical analysis of all data sets was performed using a two-tailed student's t-test, where p<0.05 is used to denote statistical significance.

NIH 3T3 fibroblasts = experiment: NIH 3T3 attachment to SAM spots presenting immobilized VR-BP; type: cell-based; details: immobilized 1% VR-BP vs scrambled peptide, 1 hour
Protocol: (§1) Passage 2 HUVECs were expanded at low cell density (less than 70% confluence) on tissue culture polystyrene to no more than 14 population doublings. During HUVEC expansion, cells were cultured in medium 199 (m199, Mediatech, Manassas, Va.) containing 1% penicillin/streptomycin (Hyclone, Logan, Utah) and supplemented with Clonetics EGM-2 BullitKit (Lonza Walkersville, Inc., Walkersville, Md.) containing Hydrocortisone, hFGF-B, VEGF, R3-IGF-1, Ascorbic Acid, Heparin, FBS, hEGF, GA-1000 growth supplements. NIH 3T3 cells were expanded in Dulbecco's modified eagles medium (DMEM, Mediatech, Manassas, Va.) containing 1% penicillin/streptomycin and supplemented with 5% cosmic calf serum (Hyclone, Logan, Utah). Before seeding on SAM arrays, HUVECs in cell culture flasks were starved for 24 hours in medium containing 2% FBS and then removed from the plate using a 0.05% trypsin solution and resuspended in m199 with 2% FBS. Cell suspension was seeded onto SAM arrays in sterile polystyrene Petri dishes and incubated in a humid environment at 37° C. and 5% CO2. After allowing cells to attach for ˜1 hr, arrays were dipped in warm m199 with 2% FBS to remove loosely attached cells and then transferred to a rectangular multidish (Thermo Scientific/Nunc, Rochester, N.Y.) containing warm media with 2% FBS and imaged ˜2 hours later serving as “0 hr”. […]

HUVEC [4] = experiment: HUVEC survival and proliferation on SAM arrays presenting immobilized VR-BP with VEGF / SU5416; type: cell-based, human
Protocol: as §1

HUVEC [5] = experiment: HUVEC attachment to SAM spots presenting immobilized VR-BP; type: cell-based, human; details: immobilized 1% VR-BP vs scrambled peptide, highest GRGDSP densities, 1 hour
Protocol: as §1

Substance: GRGESP [mutant peptide mixed with GRGDSP to control ligand density]
- HUVEC attachment (HUVEC [1]): did not promote HUVEC attachment

Substance: KIPKASSVPTEL [BR-BP]
- hMSC surface coverage (hMSC): maintained hMSC surface coverage

Substance: KLTWQELYQLKYKGI [VR-BP]
- HUVEC proliferation (EdU incorporation) compared to cells without stimulation (HUVEC [2]): significant increases in proliferation
- tubulogenesis (average tubule length per total cell area) (HUVEC [3]; 1% VR-BP vs 0% VR-BP, presence and absence of soluble VEGF): increased tubulogenesis
- tubulogenesis (HUVEC [3]; 1% VR-BP vs lower VR-BP surfaces, absence of soluble VEGF): significantly increased
- NIH 3T3 attachment (NIH 3T3 fibroblasts): no effect
- HUVEC proliferation (HUVEC [4]; immobilized 1% VR-BP, in presence of soluble VEGF, high and low ligand densities): inhibited proliferation
- HUVEC survival (HUVEC [4]; immobilized VR-BP at 1% density, without soluble VEGF or in presence of SU5416): decreased HUVEC survival
- HUVEC attachment (HUVEC [5]): significantly decreased

Substance: VEGF
- HUVEC proliferation (EdU incorporation) compared to cells without stimulation (HUVEC [2]): increased HUVEC proliferation
- tubulogenesis (average tubule length per total cell area) (HUVEC [3]; soluble VEGF protein): decreased tubulogenesis
